Measurements taken from patent US11786457B2, “Peritumoral and intratumoral materials for cancer therapy” (President and Fellows of Harvard College, priority 2015, dated 2023).

Experiments:
[1] = tested on: immune cells; assay: Click alginate cryogel with cytokines/chemokines placed under the skin, screened for immune cell accumulation; format: in vivo; conditions: Cryoclick gels
From the text: FIG. 12 is a series of photographs showing immune cell accumulation using GM-CSF—DC growth/differentiation factor in the device. FIGS. 12-15 show data using Cryoclick gels. Using a click alginate cryogel, a number of cytokines and chemokines were placed under the skin and screened for resulting activity in terms of immune cell accumulation.

[2] = tested on: human embryonic kidney (HEK) toll-like receptor-3 (TLR3) cells; assay: Bioactivity of poly I:C released from CryogelMA on HEK TLR3 cells; format: cell-based; conditions: in vitro, supernatants over several days, absorbance
From the text: FIG. 8 is a line graph showing CryogelMA poly I:C release and bioactivity. […] Doing this in the tumor microenvironment stimulates maturation of recruited antigen-presenting cells (APCs) and results in antitumor immunity.

[3] = tested on: human lung cancer and breast cancer; conditions: PNAS 2012 109 (24) 9623-9628; cited from earlier work
[4] = tested on: tumor cells
[5] = target: CD137 (Homo sapiens, UniProt Q07011); conditions: several clinical trials, Ascierto et al., 2010; cited from earlier work
CD137, sequence (Q07011 24-255): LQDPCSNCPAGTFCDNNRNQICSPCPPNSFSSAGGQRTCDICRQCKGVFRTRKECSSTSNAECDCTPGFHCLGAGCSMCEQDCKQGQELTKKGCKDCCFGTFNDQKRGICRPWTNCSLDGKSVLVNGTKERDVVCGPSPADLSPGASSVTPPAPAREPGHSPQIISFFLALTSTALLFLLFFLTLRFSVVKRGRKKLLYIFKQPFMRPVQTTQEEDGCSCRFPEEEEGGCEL

## IL-15: interleukin-15, T cell/NK cell survival factor
[1]
  immune cell accumulation at gel placed under the skin: accumulation of CD4 and CD8 T cells in the skin

## polyinosine-polycytidylic acid [poly I:C]
[2]
  response of HEK TLR3 cells to supernatants: produce a response measured by absorbance

## CCL20: Chemokine (C-C motif) ligand 20, DC chemokine
[1]
  immune cell accumulation at gel placed under the skin: bright DC staining at gel periphery

## CN(CC(=O)N(Cc1ccc(C2CCCCC2)cc1)c1ccc(C(=O)O)c(O)c1)S(=O)(=O)c1c(F)c(F)c(F)c(F)c1F [BP-1-102]
[3]
  activity against tumors in animals: active

## COc1cccc2c1C(=O)c1c(O)c3c(c(O)c1C2=O)C[C@@](O)(C(=O)CO)C[C@@H]3O[C@H]1C[C@H](N)[C@H](O)[C@H](C)O1 [doxorubicin]
[4]; day 3 after peritumoral injection, cleaved-caspase 3 staining
  cell death at the tumor close to the scaffold border: local cell death is induced
[4]; local delivery from the gels, FIG. 22
  effect on surrounding normal tissue: much less affected

## BMS-66513: anti-CD137 antibody
[5]
  clinical response: partial remissions in disease
  clinical toxicity: liver toxicity
